Assay [1] concerns the target T1, trypsin egg white inhibitor (ovomucoid) (Gallus gallus, UniProt P01005).
T1 construct: purchased Sigma Chemical Co. or Fisher Scientific Co
T1 sequence (P01005 25-210): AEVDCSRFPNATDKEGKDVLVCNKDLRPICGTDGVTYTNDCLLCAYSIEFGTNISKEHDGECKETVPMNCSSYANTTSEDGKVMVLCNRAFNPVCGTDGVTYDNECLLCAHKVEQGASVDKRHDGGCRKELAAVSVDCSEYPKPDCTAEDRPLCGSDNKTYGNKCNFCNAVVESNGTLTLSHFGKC
Briefly: BEISA: competition of unlabelled proteases with biotinylated trypsin for coated inhibitor. Particulars: ovomucoid-coated plate. The class given is binding. How it is done: The 96-well microtiter plate (Falcon 3911) was coated with trypsin egg white inhibitor (ovomucoid, 4 ug/100 ul/well) at […] overnight. The plate was washed once using PBST {[PBS, NaCl, 9.00; Na2HPO4, 1.15; NaH2PO4, 0.23 (g/l) pH 7.2] plus 0.05% Tween-20} and 200 ul of 5% skim milk was added to each well of the plate followed by incubation at 37° C. for 2 hours. The plate was rinsed twice with PBST and 50 ul of PBS was added to each well of the plate except for those in column one where 100 ul of PBS was added. Unlabelled trypsin (50 ul of 400 ug/ml) was added to the wells of the second column followed by successive double dilutions of trypsin in wells up to and including those in column 11. Biotinylated trypsin in PBS (50 ul of 1:3000 dilution of the stock to yield approximately 2 ug/100 ul/well) was added to each well except those in the first column followed by incubation at 37° C. for 1 hour. The final volume in each well was 100 ul. The blank set of wells with no trypsin (column 1) served as the negative control while the last set of wells (column 12) with biotinylated trypsin but no unlabelled trypsin served as the positive control. […] The absorbency was then read at 405 nm using a microplate reader (Bio-Rad laboratories Inc. Mississauga, ON, Canada, model 450). […]

Another assay deals with biotinylated α-casein. Briefly: Solid phase protease activity assay using biotinylated casein. The class given is biochemical. As for the experimental part:
Preparation of biotinylated casein: 12 mg α-casein in 1 ml of 0.1 M pH 7.2 phosphate-buffer saline [PBS, NaCl, 9.00; Na2HPO4, 1.15; NaH2PO4, 0.23 (g/l)] was allowed to react with 3.6 mg NHS-biotin in 150 ul DMSO for 2 hours at room temperature with gently shaking.
Assay procedure for protease activity using biotinylated casein: The microtitre plates except for the first column of 8 wells were coated using biotinylated α-casein in PBS (0.13 ug/well/100 ul) and incubated for 2 hours at 37° C. The plates were washed three times with 0.1 M PBST (PBS with 0.05% Tween-20). Different concentrations of the enzyme solution as indicated in FIGS. 12-14 (100 ul) were diluted with the appropriate buffer (see Table 2). They were added in triplicate to the wells of a plate followed by incubating in a humid atmosphere at 37° C. for 30 minutes. The plate was washed three times using PBST to terminate the protease reaction. A streptavidin-alkaline phosphatase solution (100 ul/well, 1:1000 dilution in bicarbonate buffer pH 9.5) was added to all wells in the plate except for the first column of 8 wells (as blank) and the plate was incubated at room temperature for 30 minutes. The blank set of wells contained only PBS, no added enzyme and no coating with biotinylated casein. The reaction was stopped by emptying and washing the plate six times with PBST. The pNPP substrate (100 ul/well, 1 mg/ml in 10% diethanolamine buffer pH9.8) was added to each well of the plate followed by incubation at room temperature for about 20 minutes. The absorbency was then read at 405 nm using a microplate reader (Bio-Rad laboratories, Ltd, Mississauga, ON, Canada; model 450). The best sensitivity was obtained when the maximum absorbency was around 2.0 optical density units.

The mark [2] stands for this setting: optimal pH of each protease, 37° C., 30 minutes.

For the substance trypsin, the “Concentration of trypsin that could be detected” value in assay [1] was 0.1 to 1.0 µg/mL. The “Sensitivity: amount of enzyme required to produce a 10% decrease in maximal absorbency” value with biotinylated α-casein (0.5 hour hydrolysis) was found to be 30 ng/100 ul. In the assay on biotinylated α-casein (setting [2]), the “Hydrolysis of biotin-casein by proteases” value is given as “Yes” and the “Sensitivity (amount of enzyme required to hydrolyse 10% of the biotinylated α-casein)” value was 30 ng/100 ul/sample.

(Values after patent US6610494B2, “Solid-phase activity assay for biologically active substance” (priority 1996, dated 2003).)
